Test results published in PMC5429621 (Scientific Reports, 2017).

Key:
other P2XR subtypes = conditions: cited from earlier work
hP2X7-2Nβ receptor = target: T1, hP2X7-2Nβ receptor (Homo sapiens, UniProt Q99572, I21V/M24R/N16P/N25R/Q22R/R20V/S23N/T19I/Y26L); assay: two-electrode voltage clamp, Xenopus oocytes; assay type: cell-based; conditions: P2X7-2Nβ
T1 construct: expressed in transfected cells; host or cells: Xenopus laevis oocytes (cRNA injected)
T1 sequence (Q99572 1-595 N16P/T19I/R20V/I21V/Q22R/S23N/M24R/N25R/Y26L): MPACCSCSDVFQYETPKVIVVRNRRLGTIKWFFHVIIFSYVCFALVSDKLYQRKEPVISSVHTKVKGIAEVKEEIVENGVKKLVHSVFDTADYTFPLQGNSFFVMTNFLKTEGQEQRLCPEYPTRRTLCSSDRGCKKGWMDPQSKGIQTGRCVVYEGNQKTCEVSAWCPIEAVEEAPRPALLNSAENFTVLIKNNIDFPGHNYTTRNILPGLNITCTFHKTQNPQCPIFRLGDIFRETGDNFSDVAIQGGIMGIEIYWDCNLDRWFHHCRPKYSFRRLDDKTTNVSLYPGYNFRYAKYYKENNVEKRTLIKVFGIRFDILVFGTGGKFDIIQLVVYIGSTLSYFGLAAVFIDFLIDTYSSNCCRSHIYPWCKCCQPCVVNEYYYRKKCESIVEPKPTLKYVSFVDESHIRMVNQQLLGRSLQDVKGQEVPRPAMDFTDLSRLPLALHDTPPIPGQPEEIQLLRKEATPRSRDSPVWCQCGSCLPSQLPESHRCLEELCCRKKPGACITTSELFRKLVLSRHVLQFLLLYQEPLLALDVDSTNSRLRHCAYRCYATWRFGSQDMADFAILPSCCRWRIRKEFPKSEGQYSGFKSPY
Protocol: P2XR constructs were transcribed to produce sense-strand cRNA (mMessage mMachine, Ambion, Austin, TX). Manually defoliculated stage V Xenopus laevis oocytes were injected with 50 nl (50 ng) of cRNA using an Inject + Matic microinjector (J.A. Gaby, InjectMatic, Geneva, Switzerland) and stored at 16 °C in ND96 buffer (in mM, NaCl 96, KCl 2, CaCl2 1.8, MgCl2 1, sodium pyruvate 5, HEPES 5 (pH 7.6) supplemented with 50 µg/ml gentamycin and 50 µg/ml tetracycline). For electrophysiological recordings (3–7 days post-injection) oocytes were bathed in divalent free ND96 buffer (in mM, NaCl 96, KCl 2, sodium pyruvate 5, HEPES 5 and 0.1 flufenamic acid, pH 7.6).
ATP (sodium salt, Sigma) was applied via a U-tube perfusion system for 3 s at 3–5 minute intervals to allow reproducible responses to be recorded. […] To standardize for any change in ATP sensitivity at mutant receptors antagonists were co-applied with an EC90 concentration of ATP.
Concentration response curves were normalized to the maximal response and fitted with the Hill equation (variable slope) with GraphPad Prism 6 (Graphpad software, San Diego, CA). […] Individual concentration response curves were generated for individual experiments and statistical analysis was carried out on the data generated. In the figures the inhibition curves are fitted to the mean normalized data. Any significant differences were calculated by one-way analysis of variance, followed by Bonferroni’s test (using GraphPad Prism 6). Data are shown as mean ± SEM.

[1] = tested on: hP2X7-2Nβ 74–79 C mutants; assay: two-electrode voltage clamp, Xenopus oocytes; assay type: cell-based, human; conditions: response to EC90 ATP
Description: The hP2X1R was a gift from Dr Lin-Hua Jiang (University of Leeds, UK) and the hP2X1R cDNA has been described previously. Chimeras were generated by megaprimer-mediated domain swapping. In addition to chimeras, point mutations, deletions and insertions were made using the QuikChange (Stratagene) or Q5 (New England Bioscience) mutagenesis kits. The production of the correct mutations and absence of coding errors was verified by DNA sequencing (Automated ABI Sequencing Service, University of Leicester, UK).
P2XR constructs were transcribed to produce sense-strand cRNA (mMessage mMachine, Ambion, Austin, TX). […]
Two-electrode voltage clamp recordings were carried out using a GeneClamp 500B amplifier with a Digidata 1322 A analog to digital convertor and pCLAMP 8.2 acquisition software (Molecular Devices, Menolo Park, CA) at a holding potential of −60 mV. ATP (sodium salt, Sigma) was applied via a U-tube perfusion system for 3 s at 3–5 minute intervals to allow reproducible responses to be recorded. […]
Concentration response curves were normalized to the maximal response and fitted with the Hill equation (variable slope) with GraphPad Prism 6 (Graphpad software, San Diego, CA). […] Any significant differences were calculated by one-way analysis of variance, followed by Bonferroni’s test (using GraphPad Prism 6). […]

tumour growth = tested on: tumour growth; design: method as in PMID 22505653; conditions: cited from earlier work
[2] = target: T2, P2X7 73–79 deletion mutant (hP2X7-2Nβ background) (Homo sapiens, UniProt Q99572, DEL73-79/I21V/M24R/N16P/N25R/Q22R/R20V/S23N/T19I/Y26L); assay: two-electrode voltage clamp, Xenopus oocytes; assay type: cell-based
T2 construct: expressed in transfected cells; host or cells: Xenopus laevis oocytes (cRNA injected)
T2 sequence (Q99572 with tags, fused parts or gaps N16P/T19I/R20V/I21V/Q22R/S23N/M24R/N25R/Y26L/DEL73-79): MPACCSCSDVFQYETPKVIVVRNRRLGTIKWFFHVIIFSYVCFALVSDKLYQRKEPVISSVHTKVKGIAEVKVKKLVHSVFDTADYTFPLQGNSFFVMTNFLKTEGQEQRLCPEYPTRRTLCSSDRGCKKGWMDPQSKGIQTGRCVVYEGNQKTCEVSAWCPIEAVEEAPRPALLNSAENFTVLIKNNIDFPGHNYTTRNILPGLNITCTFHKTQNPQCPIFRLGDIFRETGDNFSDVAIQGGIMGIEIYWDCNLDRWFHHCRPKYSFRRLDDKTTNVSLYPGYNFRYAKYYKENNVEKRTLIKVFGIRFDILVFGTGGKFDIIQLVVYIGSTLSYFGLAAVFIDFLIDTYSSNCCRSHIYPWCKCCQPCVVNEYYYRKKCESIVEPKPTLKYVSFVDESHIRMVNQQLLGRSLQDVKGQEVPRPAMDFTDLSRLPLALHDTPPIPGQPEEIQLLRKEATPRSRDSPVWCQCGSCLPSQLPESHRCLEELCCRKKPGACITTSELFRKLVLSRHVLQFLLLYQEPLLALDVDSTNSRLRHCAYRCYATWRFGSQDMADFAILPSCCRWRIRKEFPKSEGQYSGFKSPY

SMILES | effect at other P2XR subtypes (other P2XR subtypes) | Hill slope of AZ10606120 inhibition (hP2X7-2Nβ receptor; EC90 ATP) | % Inhibition with 30 nm AZ10606120 (hP2X7-2Nβ receptor; response to EC90 ATP) | level of inhibition to 30 nM AZ10606120 [1] | effect of AZ10606120 treatment in animal studies (tumour) (tumour growth) | Peak amplitude (hP2X7-2Nβ receptor; maximal ATP) [μA] | increase in ATP sensitivity ([2]; 73–79 del, relative to P2X7-2Nβ) | Peak amplitude ([2]; 73–79 delete, maximal ATP) [μA]
Cl.Cl.O=C(CC12CC3CC(CC(C3)C1)C2)Nc1cccc2nc(NCCNCCO)ccc12 [AZ10606120, N-[2-[[2-[(2-Hydroxyethyl)amino]ethyl]amino]-5-quinolinyl]-2-tricyclo[3.3.1.13,7]dec-1-ylacetamide dihydrochloride] | little or no effect | 1.7 ± 0.24 | ~ 70% | ~ 70% | reduced tumour growth |  |  | 
Nc1ncnc2c1ncn2[C@@H]1O[C@H](COP(=O)(O)OP(=O)(O)OP(=O)(O)O)[C@@H](O)[C@H]1O [ATP] |  |  |  |  |  | 2.69 ± 0.19 | 2–3 fold | 2.05 ± 0.23
